Key:
[1] = Accelerated decay experiment of SkQ1H2/ascorbic acid powder; assay type: physicochemical; settings: powder 95% ascorbic acid and 5% SkQ1H2
Procedure: SkQ1H2, a reduced quinole form of SkQ, was prepared as follows: 10 ml SkQ1H2 solution (with concentration 1 mg/ml) in ethanol was thoroughly mixed with 200 mg ascorbic acid and then vacuum dried.

endothelial cells = assay: TNFα-caused dysfunction of endothelial barrier (microscopy of VE-cadherin, beta-cathenin, F-actin); assay type: cell-based
db/db mice = assay: Hepatic TBA-reactive substance content (MDA) in db/db diabetic mice; assay type: in vivo; settings: SkQ1 in 20% glycerol, 250 nmol/kg per day orally for 12 weeks
Procedure: SkQ1 in 20% glycerol, as described below in Example 8 (250 nmol/kg per day) was orally administered to 10 to 12 week old homozygous db/db mice (n=8), while vehicle db/db (n=8) and non-diabetic control heterozygous db/++ (n=5) mice for 12 weeks. The hepatic TBA-reactive substance content (MDA) was determined by assay according to the method of Mihara et al. ((1978) Anal. Biochem., 86:271-278).

NFκB = NFκB activation caused by TNFα; assay type: cell-based
From the text: Additionally, SkQ1 decreases the phosphorylation and degradation of IkBa caused by TNFα. NFκB is known to be permanently active in many inflammatory diseases, such as inflammatory bowel disease, arthritis, sepsis, gastritis, asthma and atherosclerosis (Monaco et al. (2004) PNAS., 101:5634-9).

[2] = tested on: cytokines (IL-6, IL-8) protein secretion; assay: IL-6, IL-8 protein secretion induced by TNF-α in EAhy926 cells (ELISA); assay type: cell-based, human; settings: 0.2 nM for 4 d; TNF-α 5 ng/ml for 15 h
From the text: (§1) The effects of SkQ1 on ICAM-1 mRNA expression and cytokines (IL-6, IL-8) protein secretion induced by TNF-α in EAhy926 human endothelial cells (ATCC collection; catalog number CRL-2922) were examined. TNF-α is a central proinflammatory cytokine stimulating expression of cell adhesion molecules and many inflammatory cytokines. Anti-inflammatory properties of many drugs often rely on their ability to inhibit expression of pro-inflammatory cytokines induced by TNF-α using EAhy926 endothelial cells (Edgell et al. (1983) Proc. Natl. Acad. Sci. USA, 80:3734-7; Lombardi et al. (2009) Eur. J. Cell. Biol., 88:731-42; Manea et al. (2010) Cell Tissue Res., 340:71-9).
(§2) 300,000 cells were plated on 60 mm^2 culture dishes and after attachment were treated with an SkQ1 solution (0.2 nM in DMEM medium with 10% fetal serum) for 4 d, and then stimulated with TNF-α (0.05 ng/ml for 4 h for ICAM-1 or 5 ng/ml for 15 h for cytokines, respectively). ICAM-1 mRNA expression was determined by real-time PCR (Okada et al. (2005) Invest. Ophtalmol. Vis. Sci., 46:4512-8). Secretion of IL-6 and IL-8 was evaluated by ELISA (Toma et al. (2009) Biochem. Biophys. Res. Commun., 390:877-82; Volanti et al. (2002) Photochem. Photobiol., 75:36-45.) The data is shown as means±S.E. at least for 3 separate experiments.

[3] = tested on: collagen-induced arthritis; assay: Collagen-induced arthritis (CIA); assay type: in vivo, Wistar rats; settings: SkQ1 in water 250 nmol/kg per day from day 14 or day 24 after collagen injection
Procedure: Thirty Wistar rats with free food and water access were injected with complete Freund adjuvant and 250 mg type II collagen to induce CIA. Starting from 14 d and from 24 d after injection, two groups of 10 animals in each were daily fed with pharmaceutical form of SkQ1 in water comprising 250 nmol/kg body weight per day (groups “SkQ1 from day 14” and “SkQ1 from day 24”; Group “Control” received water without drugs).

ICAM-1 mRNA expression = ICAM-1 mRNA expression induced by TNF-α in EAhy926 cells (real-time PCR); assay type: cell-based, human; settings: 0.2 nM for 4 d; TNF-α 0.05 ng/ml for 4 h
From the text: as §1, §2

[4] = Storage stability of oxidized SkQ1 formulations (Example 8); assay type: physicochemical
Procedure: The stability of SkQ1 in the prepared solution was investigated by storage at RT and at 60° C. (Table 4).
The stability of SkQ1 in the prepared solution was investigated by storage at 60° C. (Table 5).
The stability of SkQ1 in the prepared composition was investigated by storage at 4° C. in darkness (Table 6).
The stability of SkQ1 in the prepared composition was investigated by storage at 60° C. in darkness (Table 7).
The stability of SkQ1 in the prepared composition was investigated by storage at RT in darkness (Table 8).
The stability of SkQ1 in the prepared composition was investigated by storage at 60° C. in darkness (Table 9).
The stability of SkQ1 in the prepared composition was investigated by storage at RT in darkness (Table 10).
The stability of SkQ1 in the prepared composition was investigated by storage at 60° C. in darkness (Table 11).

SMILES: CC1=C(C)C(=O)C(CCCCCCCCCC[P+](c2ccccc2)(c2ccccc2)c2ccccc2)=CC1=O [SkQ1]
- SkQ1 purity ([1]; after storage for 12 d at 60° C.): 95.1%
- loss from the initial concentration of the active compound ([1]; calculated for storage for 1 year at 4° C.): approximately 3.5%
- SkQ1 purity ([1]; initial): 98.7%
- disassembling of intracellular contacts and cytoskeleton reorganization caused by TNFα (endothelial cells): prevented
- MDA levels in the liver (db/db mice): significantly lowered
- activation of NFκB (NFκB): prevent activation
- phosphorylation and degradation of IkBa caused by TNFα (NFκB): decreases
- translocation of transcription factor p65 (RelA) from the cytoplasm to the nucleus (NFκB): prevent translocation
- expression of inflammatory cytokines (IL-6, IL-8) [2]: prevents excessive expression
- number of animals with apparent inflammation (increased paw volumes) [3]: reduced
- expression of ICAM-1 (ICAM-1 mRNA expression): prevents excessive expression
- SkQ1, % ([4]; SkQ1 1 mM in 20% glycerol, phosphate buffer pH 4.77, stored at 60° C., day 0): 99.34%
- SkQ1, % ([4]; SkQ1 1 mM in 20% glycerol, phosphate buffer pH 4.77, stored at 60° C., day 19): 95.30%
- SkQ1, % ([4]; SkQ1 1 mM in 20% glycerol, phosphate buffer pH 4.77, stored at RT, day 0): 99.34%
- SkQ1, % ([4]; SkQ1 1 mM in 20% glycerol, phosphate buffer pH 4.77, stored at RT, day 11): 99.71%
- SkQ1, % ([4]; SkQ1 1 mM in 20% glycerol, phosphate buffer pH 4.77, stored at RT, day 13): 99.76%
- SkQ1, % ([4]; SkQ1 1 mM in 20% glycerol, phosphate buffer pH 4.77, stored at RT, day 14): 99.68%
- SkQ1, % ([4]; SkQ1 1 mM in 20% glycerol, phosphate buffer pH 4.77, stored at RT, day 17): 99.62%
- SkQ1, % ([4]; SkQ1 1 mM in 20% glycerol, phosphate buffer pH 4.77, stored at RT, day 19): 99.63%
- SkQ1, % ([4]; SkQ1 1 mM in 20% glycerol, phosphate buffer pH 4.77, stored at RT, day 21): 99.52%
- SkQ1, % ([4]; SkQ1 1 mM in 20% glycerol, phosphate buffer pH 4.77, stored at RT, day 24): 99.57%
- SkQ1, % ([4]; SkQ1 1 mM in 20% glycerol, phosphate buffer pH 4.77, stored at RT, day 61): 99.49%
- SkQ1, % ([4]; SkQ1 with PEG-4000, solid, 4° C. in darkness, day 18): >99.9%
- SkQ1, % ([4]; SkQ1 with PEG-4000, solid, 4° C. in darkness, day 19): 99.83%
- SkQ1, % ([4]; SkQ1 with PEG-4000, solid, 4° C. in darkness, day 20): 99.80%
- SkQ1, % ([4]; SkQ1 with dextran and p-ABA, solid, 60° C. in darkness, day 0): 97.13%
- SkQ1, % ([4]; SkQ1 with dextran and p-ABA, solid, 60° C. in darkness, day 6): 39.22%
- SkQ1, % ([4]; SkQ1 with dextran and p-ABA, solid, 60° C. in darkness, day 15): 7.07%
- SkQ1, % ([4]; SkQ1 with dextran, solid, 60° C. in darkness, day 0): 96.71%
- SkQ1, % ([4]; SkQ1 with dextran, solid, 60° C. in darkness, day 6): 20.66%
- SkQ1, % ([4]; SkQ1 with dextran, solid, 60° C. in darkness, day 15): 24.14%
- SkQ1, % ([4]; SkQ1 with dextran, solid, 60° C. in darkness, day 25): 18.93%
- SkQ1, % ([4]; SkQ1 with myoinosite, solid, RT in darkness, day 0): 95.88%
- SkQ1, % ([4]; SkQ1 with myoinosite, solid, RT in darkness, day 5): 96.86%
- SkQ1, % ([4]; SkQ1 with myoinosite, solid, RT in darkness, day 6): 95.99%
- SkQ1, % ([4]; SkQ1 with myoinosite, solid, RT in darkness, day 15): 92.26%
- SkQ1, % ([4]; SkQ1 with p-aminobenzoic acid (p-ABA), solid, RT in darkness, day 0): 100%
- SkQ1, % ([4]; SkQ1 with p-aminobenzoic acid (p-ABA), solid, RT in darkness, day 30): 58.42%
- SkQ1, % ([4]; presumably SkQ1 in 50% 1,2-propylene glycol with lactic acid (10 eq), 60° C., day 0): >99.9%
- SkQ1, % ([4]; presumably SkQ1 in 50% 1,2-propylene glycol with lactic acid (10 eq), 60° C., day 72): 96.6%
- SkQ1, % ([4]; presumably SkQ1 in 50% 1,2-propylene glycol with pyruvic acid (10 eq), 60° C., day 0): >99.9%
- SkQ1, % ([4]; presumably SkQ1 in 50% 1,2-propylene glycol with pyruvic acid (10 eq), 60° C., day 72): 93.2%
